Data taken from patent US12121514B2, “Nonselective metabotropic glutamate receptor activators for treatment of attention deficit disorder and 22Q syndrome” (THE CHILDREN'S HOSPITAL OF PHILADELPHIA, priority 2015, dated 2024).
Where “and” joins values, the source holds several entries; their conditions need not be identical. Equal values may be shown once.

Test system: adolescent subjects with ADHD and at least one genetic alteration in an mGluR network gene
Experiment: Vanderbilt ADHD score (items 1-18, parent), Phase Ib trial of NFC-1
Assay type: in vivo, human
Conditions: for Change in Vanderbilt / Final Vanderbilt: individual subjects, monohydrate; for Change in Vanderbilt: placebo baseline (week 1) to final (week 5); for Final Vanderbilt: week 5; for Mean (SEM) Vanderbilt ADHD score, Repeated Measures Analysis: overall study population; for Percent of subjects completing the dose escalation to 400 mg bid that show improvement in Vanderbilt ADHD scores (at least 25% decrease) / Percent of subjects completing the dose escalation to 400 mg bid that show robust improvement in Vanderbilt ADHD scores (at least 40% decrease) / Percent of subjects demonstrating robust improvement in Vanderbilt ADHD score (at least 40% decrease) / Percent of subjects with improvement in Vanderbilt ADHD score (at least 25% decrease): relative to placebo (week 1) baseline
Source text: The Vanderbilt Rating Scale is a measure that can be completed by parents or teachers (separate forms, see Vanderbilt Rating Scale Parents and Vanderbilt Rating Scale Teachers). The Vanderbilt scale rates the child's behavior on items such as attention, finishing tasks, hyperactivity, difficulty waiting, and measures of conduct or oppositional defiant disorders—as well as measures of overall school performance and interactions with others. The first 18 items on the Vanderbilt scale correspond to those of the ADHD Rating Scale IV above while the Vanderbilt scale also includes items 19-47 related to other mental disorders including ODD (items 19-26), conduct disorder (items 27-40), anxiety (items 41, 42, and 47), and depression (items 43-46). Each of the behavioral assessment items on the Vanderbilt Scale are rated 0, 1, 2, or 3, with 0=never occurring; 1=occasionally, 2=often, and 3=very often. Thus, the ADHD Rating Scale IV, ADHD Rating Scale V, and items 1-18 of the Vanderbilt Rating Scale are equivalent scales, while additional items on the Vanderbilt Scale assess co-morbid phenotypes and disorders.
Each of the items are rated on a scale of 0, 1, 2, or 3, with 0=never; 1=occasionally, 2=often, and 3=very often. A total score of 0 to 54 is computed based on the answers to the 18 questions.
As used herein an “ADHD rating scale score,” “ADHD score” or “Vanderbilt ADHD score” are used interchangeably to refer to the computed score of the 18 items of the ADHD Rating Scale IV or V or the first 18 items of the Vanderbilt Rating Scale in any of their associated versions, e.g., for parent, teacher, or clinician to complete, and for a pediatric subject or adult subject. Clinical trials may assess the impact of drug or placebo on the ADHD score or Vanderbilt ADHD score (i.e. the score of 0 to 54 based on the first 18 items in the ADHD or Vanderbilt rating scale). In some cases, results of a clinical trial population may be analyzed by comparing the average score or a percentage change in score over time of administration of drug.
An open-label Phase Ib clinical trial was initiated to investigate the safety, pharmacokinetics and efficacy of NFC-1 (fasoracetam monohydrate) in adolescent subjects between the ages of 12 and 17 previously diagnosed with ADHD who also had at least one genetic alteration in an mGluR network gene.
Dose-escalation phase of the trial followed the PK and initial safety assessment and ran over a 5-week period. During week 1, all subjects were administered placebo capsules twice daily. After one week of placebo treatment, patients were started on 50 mg bid NFC-1 for 1 week. If safety and responsiveness data from prior dose level of fasoracetam indicated it was appropriate, subjects were then escalated to the next higher dose (100, 200, or 400 mg). […] Of the 30 trial subjects, 3 received a maximum dose of 100 mg, 9 received a maximum dose of 200 mg, and the remaining 18 received a maximum dose of 400 mg.
All efficacy assessments, except actigraphy, were made at study enrollment (“enrollment baseline”) and again, including actigraphy, once-per-week for the placebo week (“week 1” or “placebo baseline”) and at each of the 4 weeks of NFC-1 treatment. These efficacy measures include items 1-18 of the Vanderbilt scale assessing symptoms related to inattentiveness and hyperactivity-impulsiveness as well as additional questions 19-47 of the Vanderbilt scale assessing other behavioral symptoms (conducted by parent), actigraphy for quantitative measurement of activity, Quotient® ADHD test for objective measurement of micro-motion and shifts in attention state, PERMP-Math test, and CGI-I and CGI-S for assessment of global functioning. […]

[1] = Overall, Week 3, up to 100 mg bid
[2] = Overall, Week 4, up to 200 mg bid
[3] = Overall, Week 5, up to 400 mg bid
[4] = Tier 1, Week 3, up to 100 mg bid
[5] = Tier 1, Week 4, up to 200 mg bid
[6] = Tier 1, Week 5, up to 400 mg bid
[7] = Tier 2, Week 3, up to 100 mg bid
[8] = Tier 2, Week 4, up to 200 mg bid
[9] = Tier 2, Week 5, up to 400 mg bid

O=C1CC[C@H](C(=O)N2CCCCC2)N1 [NFC-1, fasoracetam monohydrate]
Vanderbilt (22q syndrome Subject 110, Week 2, 50 mg bid): 20
Vanderbilt (22q syndrome Subject 110, Week 3, 100 mg bid): 17
Vanderbilt (22q syndrome Subject 110, Week 4, 200 mg bid): 16
Vanderbilt (22q syndrome Subject 110, Week 5, 400 mg bid): 17
Vanderbilt (22q syndrome Subject 127, Week 2, 50 mg bid): 45
Vanderbilt (22q syndrome Subject 127, Week 3, 100 mg bid): 25
Vanderbilt (22q syndrome Subject 127, Week 5, 400 mg bid): 33
change in Vanderbilt ADHD score (Subject 110 (22q syndrome), week 5 compared to week 1): 5 points
Change in Vanderbilt (max dose 100 mg bid): −8 and −10 and −32
Final Vanderbilt (max dose 100 mg bid): 0 and 22 and 17
Change in Vanderbilt (max dose 200 mg bid): −14 and −3 and −9 and −32 and −5 and −1 and −35 and −2 and −8
Final Vanderbilt (max dose 200 mg bid): 23 and 3 and 0 and 18 and 31 and 1 and 12 and 39 and 30
Change in Vanderbilt (max dose 400 mg bid): −4 and −5 and 4 and −13 (2×) and 21 and −16 (2×) and 1 and 0 and −9 and −10 and −21 and −6 and −11 and −20 and −1
Final Vanderbilt (max dose 400 mg bid): 6 and 17 (2×) and 34 and 36 and 46 and 12 (2×) and 0 and 15 and 24 and 14 and 23 and 29 and 33 and 16 and 35
Mean (SEM) Vanderbilt ADHD score, Repeated Measures Analysis (Week 2, 50 mg bid): 26.4 (8.1)
Mean (SEM) Vanderbilt ADHD score, Repeated Measures Analysis (Week 3, up to 100 mg bid): 24.0 (8.1)
Mean (SEM) Vanderbilt ADHD score, Repeated Measures Analysis (Week 4, up to 200 mg bid): 23.3 (8.1)
Mean (SEM) Vanderbilt ADHD score, Repeated Measures Analysis (Week 5, up to 400 mg bid): 22.5 (8.1)
Percent of subjects completing the dose escalation to 400 mg bid that show improvement in Vanderbilt ADHD scores (at least 25% decrease) (Overall, Week 2, 50 mg bid): 14%
Percent of subjects completing the dose escalation to 400 mg bid that show robust improvement in Vanderbilt ADHD scores (at least 40% decrease) (Overall, Week 2, 50 mg bid): 7%
Percent of subjects demonstrating robust improvement in Vanderbilt ADHD score (at least 40% decrease) (Overall, Week 2, 50 mg bid): 7%
Percent of subjects with improvement in Vanderbilt ADHD score (at least 25% decrease) (Overall, Week 2, 50 mg bid): 25%
Percent of subjects completing the dose escalation to 400 mg bid that show improvement in Vanderbilt ADHD scores (at least 25% decrease) (Overall, Week 3, 100 mg bid): 36%
Percent of subjects completing the dose escalation to 400 mg bid that show robust improvement in Vanderbilt ADHD scores (at least 40% decrease) (Overall, Week 3, 100 mg bid): 29%
Percent of subjects demonstrating robust improvement in Vanderbilt ADHD score (at least 40% decrease) [1]: 25%
Percent of subjects with improvement in Vanderbilt ADHD score (at least 25% decrease) [1]: 43%
Percent of subjects completing the dose escalation to 400 mg bid that show improvement in Vanderbilt ADHD scores (at least 25% decrease) (Overall, Week 4, 200 mg bid): 36%
Percent of subjects completing the dose escalation to 400 mg bid that show robust improvement in Vanderbilt ADHD scores (at least 40% decrease) (Overall, Week 4, 200 mg bid): 21%
Percent of subjects demonstrating robust improvement in Vanderbilt ADHD score (at least 40% decrease) [2]: 32%
Percent of subjects with improvement in Vanderbilt ADHD score (at least 25% decrease) [2]: 43%
Percent of subjects completing the dose escalation to 400 mg bid that show improvement in Vanderbilt ADHD scores (at least 25% decrease) (Overall, Week 5, 400 mg bid): 57%
Percent of subjects completing the dose escalation to 400 mg bid that show robust improvement in Vanderbilt ADHD scores (at least 40% decrease) (Overall, Week 5, 400 mg bid): 36%
Percent of subjects demonstrating robust improvement in Vanderbilt ADHD score (at least 40% decrease) [3]: 37%
Percent of subjects with improvement in Vanderbilt ADHD score (at least 25% decrease) [3]: 52%
Percent of subjects completing the dose escalation to 400 mg bid that show improvement in Vanderbilt ADHD scores (at least 25% decrease) (Tier 1, Week 2, 50 mg bid): 22%
Percent of subjects completing the dose escalation to 400 mg bid that show robust improvement in Vanderbilt ADHD scores (at least 40% decrease) (Tier 1, Week 2, 50 mg bid): 11%
Percent of subjects demonstrating robust improvement in Vanderbilt ADHD score (at least 40% decrease) (Tier 1, Week 2, 50 mg bid): 12%
Percent of subjects with improvement in Vanderbilt ADHD score (at least 25% decrease) (Tier 1, Week 2, 50 mg bid): 29%
Percent of subjects completing the dose escalation to 400 mg bid that show improvement in Vanderbilt ADHD scores (at least 25% decrease) (Tier 1, Week 3, 100 mg bid): 44%
Percent of subjects completing the dose escalation to 400 mg bid that show robust improvement in Vanderbilt ADHD scores (at least 40% decrease) (Tier 1, Week 3, 100 mg bid): 44%
Percent of subjects demonstrating robust improvement in Vanderbilt ADHD score (at least 40% decrease) [4]: 44%
Percent of subjects with improvement in Vanderbilt ADHD score (at least 25% decrease) [4]: 50%
Percent of subjects completing the dose escalation to 400 mg bid that show improvement in Vanderbilt ADHD scores (at least 25% decrease) (Tier 1, Week 4, 200 mg bid): 44%
Percent of subjects completing the dose escalation to 400 mg bid that show robust improvement in Vanderbilt ADHD scores (at least 40% decrease) (Tier 1, Week 4, 200 mg bid): 33%
Percent of subjects demonstrating robust improvement in Vanderbilt ADHD score (at least 40% decrease) [5]: 50%
Percent of subjects with improvement in Vanderbilt ADHD score (at least 25% decrease) [5]: 56%
Percent of subjects completing the dose escalation to 400 mg bid that show improvement in Vanderbilt ADHD scores (at least 25% decrease) (Tier 1, Week 5, 400 mg bid): 56%
Percent of subjects completing the dose escalation to 400 mg bid that show robust improvement in Vanderbilt ADHD scores (at least 40% decrease) (Tier 1, Week 5, 400 mg bid): 33%
Percent of subjects demonstrating robust improvement in Vanderbilt ADHD score (at least 40% decrease) [6]: 44%
Percent of subjects with improvement in Vanderbilt ADHD score (at least 25% decrease) [6]: 56%
Percent of subjects completing the dose escalation to 400 mg bid that show improvement in Vanderbilt ADHD scores (at least 25% decrease) (Tier 2, Week 2, 50 mg bid): 0%
Percent of subjects completing the dose escalation to 400 mg bid that show robust improvement in Vanderbilt ADHD scores (at least 40% decrease) (Tier 2, Week 2, 50 mg bid): 0%
Percent of subjects demonstrating robust improvement in Vanderbilt ADHD score (at least 40% decrease) (Tier 2, Week 2, 50 mg bid): 0%
Percent of subjects with improvement in Vanderbilt ADHD score (at least 25% decrease) (Tier 2, Week 2, 50 mg bid): 29%
Percent of subjects completing the dose escalation to 400 mg bid that show improvement in Vanderbilt ADHD scores (at least 25% decrease) (Tier 2, Week 3, 100 mg bid): 20%
Percent of subjects completing the dose escalation to 400 mg bid that show robust improvement in Vanderbilt ADHD scores (at least 40% decrease) (Tier 2, Week 3, 100 mg bid): 0%
Percent of subjects demonstrating robust improvement in Vanderbilt ADHD score (at least 40% decrease) [7]: 0%
Percent of subjects with improvement in Vanderbilt ADHD score (at least 25% decrease) [7]: 43%
Percent of subjects completing the dose escalation to 400 mg bid that show improvement in Vanderbilt ADHD scores (at least 25% decrease) (Tier 2, Week 4, 200 mg bid): 20%
Percent of subjects completing the dose escalation to 400 mg bid that show robust improvement in Vanderbilt ADHD scores (at least 40% decrease) (Tier 2, Week 4, 200 mg bid): 0%
Percent of subjects demonstrating robust improvement in Vanderbilt ADHD score (at least 40% decrease) [8]: 14%
Percent of subjects with improvement in Vanderbilt ADHD score (at least 25% decrease) [8]: 43%
Percent of subjects completing the dose escalation to 400 mg bid that show improvement in Vanderbilt ADHD scores (at least 25% decrease) (Tier 2, Week 5, 400 mg bid): 60%
Percent of subjects completing the dose escalation to 400 mg bid that show robust improvement in Vanderbilt ADHD scores (at least 40% decrease) (Tier 2, Week 5, 400 mg bid): 40%
Percent of subjects demonstrating robust improvement in Vanderbilt ADHD score (at least 40% decrease) [9]: 43%
Percent of subjects with improvement in Vanderbilt ADHD score (at least 25% decrease) [9]: 71%
Percent of subjects completing the dose escalation to 400 mg bid that show improvement in Vanderbilt ADHD scores (at least 25% decrease) (Tier 3, Week 2, 50 mg bid): 33%
Percent of subjects completing the dose escalation to 400 mg bid that show robust improvement in Vanderbilt ADHD scores (at least 40% decrease) (Tier 3, Week 2, 50 mg bid): 33%
Percent of subjects demonstrating robust improvement in Vanderbilt ADHD score (at least 40% decrease) (Tier 3, Week 2, 50 mg bid): 0%
Percent of subjects with improvement in Vanderbilt ADHD score (at least 25% decrease) (Tier 3, Week 2, 50 mg bid): 0%
Percent of subjects completing the dose escalation to 400 mg bid that show improvement in Vanderbilt ADHD scores (at least 25% decrease) (Tier 3, Week 3, 100 mg bid): 33%
Percent of subjects completing the dose escalation to 400 mg bid that show robust improvement in Vanderbilt ADHD scores (at least 40% decrease) (Tier 3, Week 3, 100 mg bid): 0%
